Results on three compounds are retold here after PMC2628629 (Bioorganic & medicinal chemistry letters, 2008).

The target of this experiment is E. coli MenE (Escherichia coli, UniProt P37353). As to the kind of experiment: MenE inhibition, coupled assay with MenE and MenB. It counts as biochemical. The note with it: for Inhibition of MenE, result in words: inhibitor at up to 200 μM.

Each structure is given as a SMILES string.

Chain of E. coli MenE (P37353 whole entry): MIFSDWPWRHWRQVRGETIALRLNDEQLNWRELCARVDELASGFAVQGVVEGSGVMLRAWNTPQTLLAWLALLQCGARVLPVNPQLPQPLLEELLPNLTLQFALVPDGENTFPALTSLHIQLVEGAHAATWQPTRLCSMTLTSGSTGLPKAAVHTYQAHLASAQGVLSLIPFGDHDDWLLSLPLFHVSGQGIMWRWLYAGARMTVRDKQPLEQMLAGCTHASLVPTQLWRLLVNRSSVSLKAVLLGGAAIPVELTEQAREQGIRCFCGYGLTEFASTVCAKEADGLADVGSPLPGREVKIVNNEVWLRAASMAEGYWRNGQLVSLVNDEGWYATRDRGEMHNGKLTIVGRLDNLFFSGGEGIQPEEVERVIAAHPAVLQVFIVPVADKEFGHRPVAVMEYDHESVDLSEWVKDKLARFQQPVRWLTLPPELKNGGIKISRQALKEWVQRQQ

For `COC(=O)c1ccccc1C(=O)CC/C=C/S(=O)(=O)NC[C@H]1O[C@@H](n2cnc3c(N)ncnc32)[C@H](O)[C@@H]1O` [Compound 3, MeOSB-AVSN], the “Kinetic analysis of MenE inhibition (mode of binding)” value is recorded as “slow-binding inhibitor”.

As for `COC(=O)c1ccccc1C(=O)CCC(=O)NS(=O)(=O)NC[C@H]1O[C@@H](n2cnc3c(N)ncnc32)[C@H](O)[C@@H]1O` [Compound 2, MeOSB-AMSN], the “Inhibition of MenE, result in words” value is “effective inhibitors”. On to `COC(=O)c1ccccc1C(=O)CCC(=O)NS(=O)(=O)OC[C@H]1O[C@@H](n2cnc3c(N)ncnc32)[C@H](O)[C@@H]1O` [Compound 1, MeOSB-AMS], for which the “Inhibition of MenE, result in words” value is recorded as “effective inhibitors”.
